In PubChem BioAssay (NCI):
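96-well plates; 48 h exposure; 5 concentrations. Endpoints by linear interpolation between flanking doses. Not reached: highest tested concentration assigned. TGI marks complete inhibition of growth.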

Columns and labels:
Experiment in all cases: inhibition of tumour cell growth, NCI panel, 48 h
NCI-H460 lung = tested on: NCI-H460 lung
KM12 colon = tested on: KM12 colon
HCT-15 colon = tested on: HCT-15 colon
UO-31 renal = tested on: UO-31 renal
T-47D breast = tested on: T-47D breast
NCI-H226 lung = tested on: NCI-H226 lung
SF-295 CNS = tested on: SF-295 CNS
RXF 393 renal = tested on: RXF 393 renal

Row | Compound | TGI (NCI-H460 lung) | TGI (KM12 colon) | TGI (HCT-15 colon) | TGI (UO-31 renal) | TGI (T-47D breast) | TGI (NCI-H226 lung) | TGI (SF-295 CNS) | TGI (RXF 393 renal)
1 | Cc1ccc(S(=O)(=O)NN=C2C(C)CC(C(C)(C)C)CC2C)cc1 (centres undefined) | 34.3 µM | 31.4 µM | 34.4 µM | 40.8 µM | 50.7 µM | 34.5 µM | 33.1 µM | –
2 | COc1cc(/C=C2\N=C(c3ccccc3)N(c3ccc4c(c3)Sc3cc(N5C(=O)/C(=C/c6cc(OC)c(OC)c(OC)c6)N=C5c5ccccc5)ccc3N4)C2=O)cc(OC)c1OC | > 100 µM | > 100 µM | > 100 µM | > 100 µM | 70.2 µM | – | 47.9 µM | 46.1 µM
3 | CC(Cc1ccc(O)cn1)(NC(=O)c1ccccc1)C(=O)O (centres undefined) | > 100 µM | > 100 µM | > 100 µM | > 100 µM | – | > 100 µM | > 100 µM | > 100 µM
4 | Brc1ccc(N=C/C=C(\Nc2ccc(Br)cc2)C23CC4CC(CC(C4)C2)C3)cc1 | > 68.8 µM | 33.9 µM | > 46.6 µM | 34.6 µM | 43.9 µM | > 100 µM | > 92 µM | 29 µM
5 | Cc1nn(C(=O)c2ccc(Cl)cc2)c2c1C(c1ccccc1)SC(N)=N2 (centres undefined) | > 10 µM | > 10 µM | > 10 µM | – | > 10 µM | > 10 µM | > 10 µM | > 10 µM
6 | O=C1NC(=S)NC1C(Cc1ccccc1)c1ccco1 (centres undefined) | > 100 µM | > 100 µM | > 100 µM | > 100 µM | > 100 µM | > 100 µM | > 100 µM | > 100 µM
7 | CC(C)(C)OC(=O)CCC1NC(=O)[C@@H]2Cc3c([nH]c4ccccc34)C(c3ccccc3)N2C1=O (some centres undefined) | – | 65.4 µM | 90.5 µM | > 100 µM | > 100 µM | 86.8 µM | 37.8 µM | 45.7 µM
8 | CCOC(=O)C1C(c2ccccc2)C2(C#N)C(=N)OC1(C)C2(C#N)C#N (centres undefined) | – | – | > 100 µM | 31.4 µM | > 100 µM | > 100 µM | > 100 µM | 35.5 µM
9 | CCN1CCC(O)(/C=C/c2cccc(C)c2)C(C(=O)/C=C/c2cccc(C)c2)C1 (centres undefined) | 4.64 µM | 3.27 µM | 6.29 µM | 3.06 µM | 8.38 µM | 5.89 µM | 4.51 µM | 3.57 µM
10 | Cc1cc(N(C)C)ccc1N=Nc1ccc2ncccc2c1 | > 100 µM | > 100 µM | > 100 µM | > 100 µM | > 100 µM | > 100 µM | > 100 µM | > 100 µM
11 | CCCCCCCCOP(=O)(O)OP(=O)(O)OCC1OC(n2ccc(N)nc2=O)C(O)C1O (centres undefined) | > 100 µM | > 100 µM | > 100 µM | > 100 µM | > 100 µM | > 100 µM | > 100 µM | > 100 µM
12 | Nc1ccc(-c2nnc(-c3c(Cl)c(Cl)c(Cl)c(Cl)c3-c3nc4ccc(C(=O)c5ccccc5)cc4[nH]3)o2)cc1 | – | > 100 µM | 61 µM | > 100 µM | 78.5 µM | 41.2 µM | 58.5 µM | 43.2 µM
13 | Clc1ccc(-c2cn3c(nc4ccccc43)c(/C=C/c3cccs3)n2)cc1 | > 100 µM | > 100 µM | > 100 µM | > 100 µM | > 100 µM | > 100 µM | – | > 100 µM
14 | CCOC(=O)c1ccc(N(C)Cc2cnc3nc(N)nc(N)c3n2)cc1 | > 100 µM | > 100 µM | > 100 µM | 72.1 µM | 79.7 µM | 41.8 µM | > 100 µM | 33 µM
15 | CCOC(=O)c1sc2c(c1OC(=O)c1ccc(Cl)cc1Cl)c(=O)n(-c1ccccc1)c(=S)n2-c1ccccc1 | > 55 µM | > 42.3 µM | 38.6 µM | > 100 µM | > 100 µM | > 33.6 µM | > 100 µM | > 100 µM
16 | COc1cc(CN(C)N2C(=O)c3cccc4cc([N+](=O)[O-])cc(c34)C2=O)cc(OC)c1OC | > 100 µM | > 100 µM | > 100 µM | > 100 µM | > 100 µM | > 100 µM | > 100 µM | 90.3 µM
17 | COc1ccc2cc(NC(=O)Nn3cnnc3)ccc2c1 | > 100 µM | > 100 µM | > 100 µM | > 100 µM | > 100 µM | > 100 µM | > 100 µM | –
18 | COc1cc(C2SC(N)=Nc3c2c(C)nn3C(=O)Cc2ccccc2)cc(OC)c1OC (centres undefined) | > 100 µM | > 100 µM | > 100 µM | > 100 µM | > 100 µM | > 100 µM | > 100 µM | –
19 | CC1NC(=O)c2c(-c3ccccc3)nn(-c3ccccc3)c2NC1=O (centres undefined) | > 100 µM | > 100 µM | > 100 µM | > 100 µM | > 100 µM | > 100 µM | > 100 µM | > 100 µM
20 | NC(=S)Nc1c(S(N)(=O)=O)cc(S(N)(=O)=O)c(Cl)c1Cl | – | > 100 µM | > 100 µM | > 100 µM | – | > 100 µM | > 100 µM | > 100 µM
21 | CC(=O)OCC(OC(C)=O)C(OC(C)=O)C(/C=N\Nc1nc2ccccc2c(=O)[nH]1)OC(C)=O (centres undefined) | > 100 µM | > 100 µM | > 100 µM | > 100 µM | > 100 µM | > 100 µM | > 100 µM | –
22 | CC(C)C1=CC23CCC4C(C)(C(=O)O)CCCC4(C)C2CC1C1C(=O)N(c2ccc(N4C(=O)C5C6CC7C8(C)CCCC(C)(C(=O)O)C8CCC7(C=C6C(C)C)C5C4=O)cc2)C(=O)C13 (centres undefined) | – | 15.2 µM | 27.2 µM | 34 µM | 26.8 µM | 13.7 µM | – | 24.7 µM
23 | CNC(=S)N/N=C(\C)c1cc(OC)c(OC)cc1O | > 100 µM | > 100 µM | > 100 µM | > 100 µM | > 100 µM | – | – | > 100 µM
24 | O=C(OC1C#CCSCC#C/C=C\1)c1cnc2ccccc2n1 (centres undefined) | 33.7 µM | – | > 100 µM | > 100 µM | – | > 100 µM | > 100 µM | > 100 µM
25 | CC(=O)OCc1cc(OC(C)=O)c2cc3c(OC(C)=O)cccc3c(OC(C)=O)c2c1 | 23.8 µM | – | 31.1 µM | 41.2 µM | 51.3 µM | 47.3 µM | 32.9 µM | –
26 | CC1(C)CC(=O)c2c(nc3c(ccc4ccccc43)c2-c2ccc(NC(=O)CCCCCCCCC(=O)Nc3ccc(-c4c5c(nc6c4ccc4ccccc46)CC(C)(C)CC5=O)cc3)cc2)C1 | > 100 µM | > 100 µM | – | > 100 µM | > 100 µM | > 100 µM | > 100 µM | –
